Earlier results as cited in Sander's compilation of Henry's law constants.

Assay: Henry solubility constant Hcp at 298.15 K (mol/(m3 Pa))
Conditions: reference: Schüürmann (2000); cited value

With `Sc1ccccc1` [benzenethiol] as the molecule, how does the “Henry solubility constant Hcp” value read?
The value was 0.03.

With `O=Cc1ccccc1` [benzaldehyde] as the molecule, how does the “Henry solubility constant Hcp” value read?
Its value is 0.37.

Which “Henry solubility constant Hcp” value does the source give for `Cc1ccccc1` [methylbenzene] here?
Its value is 0.0015.

Which “Henry solubility constant Hcp” value does the source give for `COc1ccccc1` [methoxybenzene] here?
Its value is 0.069.

Which “Henry solubility constant Hcp” value does the source give for `Cc1ccc(C)cc1` [1,4-dimethylbenzene] here?
The value was 0.0013.

For `O=[N+]([O-])c1ccccc1` [nitrobenzene], which “Henry solubility constant Hcp” value is on record?
Its value is 0.41.

With `Clc1ccccc1` [chlorobenzene] as the molecule, how does the “Henry solubility constant Hcp” value read?
The value was 0.0027.

For `Cc1ccccc1O` [1-hydroxy-2-methylbenzene], which “Henry solubility constant Hcp” value is on record?
The value was 8.3.

Which “Henry solubility constant Hcp” value does the source give for `CC(=O)c1ccccc1` [1-phenylethanone] here?
Its value is 0.93.

For `Cc1ccc(O)cc1` [1-hydroxy-4-methylbenzene], which “Henry solubility constant Hcp” value is on record?
The value was 13.

Which “Henry solubility constant Hcp” value does the source give for `Clc1ccc(Cl)cc1` [1,4-dichlorobenzene] here?
The value was 0.0041.

For `Brc1ccccc1` [bromobenzene], which “Henry solubility constant Hcp” value is on record?
Its value is 0.004.

Which “Henry solubility constant Hcp” value does the source give for `c1ccccc1` [benzene] here?
Its value is 0.0018.
